Laboratory results as given in paper PMC5218480 (PLoS ONE, 2017).

System: MV-4-11 cells
Assay: Gene expression microarray analysis (Affymetrix PrimeView) and GSEA
Type: cell-based, human
Design: RFU PODN (11730768_x_at) / Fold change /veh PODN (11730768_x_at) / RFU LINC00158 (11744669_a_at) / Fold change /veh LINC00158 (11744669_a_at) / RFU DUSP10 (11751237_a_at) / Fold change /veh DUSP10 (11751237_a_at) / RFU ID3 (11757404_x_at) / Fold change /veh ID3 (11757404_x_at) / RFU PLEKHG5 (11737974_s_at) / Fold change /veh PLEKHG5 (11737974_s_at) / RFU LRRC4B (11730491_at) / Fold change /veh LRRC4B (11730491_at) / RFU GIMAP4 (11747438_a_at) / Fold change /veh GIMAP4 (11747438_a_at) / RFU KRT8 (11758183_x_at) / Fold change /veh KRT8 (11758183_x_at) / RFU CNN1 (11734310_a_at) / Fold change /veh CNN1 (11734310_a_at) / RFU VPS37D (11726825_at) / Fold change /veh VPS37D (11726825_at) / RFU C10orf10 (11716522_x_at) / Fold change /veh C10orf10 (11716522_x_at) / RFU KIR2DL2 /// KIR2DL4 /// KIR2DL5A /// KIR2DL5B /// KIR2DS1 /// KIR2DS2 /// KIR2DS3 /// KIR2DS4 /// KIR3DL3 /// KIR3DL3 /// KIR3DS1 (11738374_at) / Fold change /veh KIR2DL2 /// KIR2DL4 /// KIR2DL5A /// KIR2DL5B /// KIR2DS1 /// KIR2DS2 /// KIR2DS3 /// KIR2DS4 /// KIR3DL3 /// KIR3DL3 /// KIR3DS1 (11738374_at) / RFU C1QL1 (11718748_at) / Fold change /veh C1QL1 (11718748_at) / RFU TMPRSS4 (11747572_a_at) / Fold change /veh TMPRSS4 (11747572_a_at) / RFU HAMP (11756126_x_at) / Fold change /veh HAMP (11756126_x_at) / RFU RNFT2 (11725882_a_at) / Fold change /veh RNFT2 (11725882_a_at) / RFU NR4A2 (11747474_a_at) / Fold change /veh NR4A2 (11747474_a_at) / RFU ABCC12 (11746883_a_at) / Fold change /veh ABCC12 (11746883_a_at) / RFU TMEM136 (11760407_x_at) / Fold change /veh TMEM136 (11760407_x_at) / RFU CLDN22 /// WWC2 (11732394_at) / Fold change /veh CLDN22 /// WWC2 (11732394_at) / RFU HLA-DPB1 (11760878_x_at) / Fold change /veh HLA-DPB1 (11760878_x_at) / RFU SPINT1 (11716480_a_at) / Fold change /veh SPINT1 (11716480_a_at) / RFU GAP43 (11754022_s_at) / Fold change /veh GAP43 (11754022_s_at) / RFU A4GNT (11735810_at) / Fold change /veh A4GNT (11735810_at) / RFU PRB3 (11715151_x_at) / Fold change /veh PRB3 (11715151_x_at) / RFU TUBB4B (11761932_at) / Fold change /veh TUBB4B (11761932_at) / RFU CAPN14 (11732068_a_at) / Fold change /veh CAPN14 (11732068_a_at) / RFU TMCC2 (11721928_a_at) / Fold change /veh TMCC2 (11721928_a_at) / RFU IRGQ (11745062_a_at) / Fold change /veh IRGQ (11745062_a_at) / RFU FAM174B (11720279_a_at) / Fold change /veh FAM174B (11720279_a_at) / RFU TMPRSS4 (11748680_a_at) / Fold change /veh TMPRSS4 (11748680_a_at) / RFU FAM212B (11763350_a_at) / Fold change /veh FAM212B (11763350_a_at) / RFU PLEKHG5 (11743358_a_at) / Fold change /veh PLEKHG5 (11743358_a_at) / RFU ZSCAN30 (11745921_a_at) / Fold change /veh ZSCAN30 (11745921_a_at) / RFU CMKLR1 (11741424_a_at) / Fold change /veh CMKLR1 (11741424_a_at) / RFU LOC101060620 /// MAPK8IP1 (11723275_at) / Fold change /veh LOC101060620 /// MAPK8IP1 (11723275_at) / RFU SPTSSB (11747773_x_at) / Fold change /veh SPTSSB (11747773_x_at) / RFU PRSS12 (11739890_at) / Fold change /veh PRSS12 (11739890_at) / RFU BIN1 (11741810_x_at) / Fold change /veh BIN1 (11741810_x_at) / RFU WNT11 (11732464_a_at) / Fold change /veh WNT11 (11732464_a_at) / RFU C10orf10 (11716521_a_at) / Fold change /veh C10orf10 (11716521_a_at) / RFU C5orf56 (11738089_at) / Fold change /veh C5orf56 (11738089_at) / RFU CYB561 (11721691_x_at) / Fold change /veh CYB561 (11721691_x_at) / RFU ANKRD19P (11752326_a_at) / Fold change /veh ANKRD19P (11752326_a_at) / RFU OR2T12 /// OR2T33 /// OR2T8 (11738714_s_at) / Fold change /veh OR2T12 /// OR2T33 /// OR2T8 (11738714_s_at) / RFU VCAN (11748164_a_at) / Fold change /veh VCAN (11748164_a_at) / RFU JSRP1 (11732532_at) / Fold change /veh JSRP1 (11732532_at) / RFU KRTAP10-11 (11738290_x_at) / Fold change /veh KRTAP10-11 (11738290_x_at) / RFU MYO3A (11730013_a_at) / Fold change /veh MYO3A (11730013_a_at) / RFU EBF3 (11725865_a_at) / Fold change /veh EBF3 (11725865_a_at) / RFU CAMK2N1 (11719241_x_at) / Fold change /veh CAMK2N1 (11719241_x_at) / RFU C5orf56 (11738088_a_at) / Fold change /veh C5orf56 (11738088_a_at) / RFU OLFML3 (11715873_a_at) / Fold change /veh OLFML3 (11715873_a_at) / RFU LOC100653217 /// NTM (11731650_a_at) / Fold change /veh LOC100653217 /// NTM (11731650_a_at) / RFU MAPK11 (11762145_a_at) / Fold change /veh MAPK11 (11762145_a_at) / RFU FIZ1 (11724087_x_at) / Fold change /veh FIZ1 (11724087_x_at) / RFU OASL (11726364_x_at) / Fold change /veh OASL (11726364_x_at) / RFU SOX15 (11748057_x_at) / Fold change /veh SOX15 (11748057_x_at) / RFU CD79A (11719716_a_at) / Fold change /veh CD79A (11719716_a_at) / RFU HIST1H1D (11736915_at) / Fold change /veh HIST1H1D (11736915_at) / RFU CASKIN2 (11723855_a_at) / Fold change /veh CASKIN2 (11723855_a_at) / RFU LOC730098 (11760151_x_at) / Fold change /veh LOC730098 (11760151_x_at) / RFU OR4N2 (11742367_at) / Fold change /veh OR4N2 (11742367_at) / RFU PRRT2 (11749266_a_at) / Fold change /veh PRRT2 (11749266_a_at) / RFU SNX32 (11753110_a_at) / Fold change /veh SNX32 (11753110_a_at) / RFU CDHR5 (11726645_a_at) / Fold change /veh CDHR5 (11726645_a_at) / RFU RCAN1 (11760418_a_at) / Fold change /veh RCAN1 (11760418_a_at) / RFU FAM167A (11723789_a_at) / Fold change /veh FAM167A (11723789_a_at) / RFU FAM26E (11764081_at) / Fold change /veh FAM26E (11764081_at) / RFU ISYNA1 (11749810_s_at) / Fold change /veh ISYNA1 (11749810_s_at) / RFU ACY1 (11761880_at) / Fold change /veh ACY1 (11761880_at) / RFU 11764098_at / Fold change /veh 11764098_at / RFU SAMD14 (11745864_x_at) / Fold change /veh SAMD14 (11745864_x_at) / RFU NPB (11741838_a_at) / Fold change /veh NPB (11741838_a_at) / RFU TMPRSS6 (11731388_a_at) / Fold change /veh TMPRSS6 (11731388_a_at) / RFU KRTAP10-2 (11738614_at) / Fold change /veh KRTAP10-2 (11738614_at) / RFU ARHGAP8 /// PRR5-ARHGAP8 (11727945_x_at) / Fold change /veh ARHGAP8 /// PRR5-ARHGAP8 (11727945_x_at) / RFU KRTAP5-7 /// NADSYN1 (11734609_at) / Fold change /veh KRTAP5-7 /// NADSYN1 (11734609_at) / RFU RASL12 (11751679_a_at) / Fold change /veh RASL12 (11751679_a_at) / RFU CDKN2B (11736163_a_at) / Fold change /veh CDKN2B (11736163_a_at) / RFU PRF1 (11729649_at) / Fold change /veh PRF1 (11729649_at) / RFU, ZNF638 /// ZNF638-IT1 / Fold change vs veh, ZNF638 /// ZNF638-IT1 / RFU, PANK3 / Fold change vs veh, PANK3 / RFU, SH3YL1 / Fold change vs veh, SH3YL1 / RFU, ZEB2 / Fold change vs veh, ZEB2 / RFU, NRIP1 / Fold change vs veh, NRIP1 / RFU, PTTG1IP / Fold change vs veh, PTTG1IP / RFU, CAPN2 / Fold change vs veh, CAPN2 / RFU, MED14 / Fold change vs veh, MED14 / RFU, SNORA58 / Fold change vs veh, SNORA58 / RFU, C1orf63 / Fold change vs veh, C1orf63 / RFU, LRRFIP1 / Fold change vs veh, LRRFIP1 / RFU, NDUFAF7 / Fold change vs veh, NDUFAF7 / RFU, SLC12A2 / Fold change vs veh, SLC12A2 / RFU, IBTK / Fold change vs veh, IBTK / RFU, ESF1 / Fold change vs veh, ESF1 / Fold change vs veh, TMEM50B / RFU, TAOK1 / Fold change vs veh, TAOK1 / RFU, ACBD3 / Fold change vs veh, ACBD3 / RFU, TMA16 / Fold change vs veh, TMA16 / RFU, RWDD3 / Fold change vs veh, RWDD3 / RFU, BCAT1 / Fold change vs veh, BCAT1 / RFU, EDEM3 / Fold change vs veh, EDEM3 / RFU, TMEM33 / Fold change vs veh, TMEM33 / RFU, WDR75 / Fold change vs veh, WDR75 / RFU, AHCTF1 / Fold change vs veh, AHCTF1 / RFU, TFRC / Fold change vs veh, TFRC / RFU, ZDHHC17 / Fold change vs veh, ZDHHC17 / RFU, NOM1 / Fold change vs veh, NOM1 / RFU, ARL8B / Fold change vs veh, ARL8B / RFU, ZBTB11 / Fold change vs veh, ZBTB11 / RFU, TAMM41 / Fold change vs veh, TAMM41 / RFU, KIAA1704 /// LOC100996395 / Fold change vs veh, KIAA1704 /// LOC100996395 / RFU, ING1 / Fold change vs veh, ING1 / RFU, TRMT61B / Fold change vs veh, TRMT61B / RFU, FUBP3 / Fold change vs veh, FUBP3 / RFU, TP53 / Fold change vs veh, TP53 / RFU, TNKS2 / Fold change vs veh, TNKS2 / RFU, ZFP14 / Fold change vs veh, ZFP14 / RFU, ACTR2 / Fold change vs veh, ACTR2 / RFU, PPP3R1 / Fold change vs veh, PPP3R1 / RFU, PIK3R1 / Fold change vs veh, PIK3R1 / RFU, HNRNPA1 / Fold change vs veh, HNRNPA1 / RFU, RNF170 / Fold change vs veh, RNF170 / RFU, ZNF28 / Fold change vs veh, ZNF28 / RFU, RNGTT / Fold change vs veh, RNGTT / RFU, OGT / Fold change vs veh, OGT / RFU, BRD1 / Fold change vs veh, BRD1 / RFU, MARS / Fold change vs veh, MARS / RFU, ZNF655 / Fold change vs veh, ZNF655 / RFU, FAHD1 / Fold change vs veh, FAHD1 / RFU, BDP1 / Fold change vs veh, BDP1 / RFU, LRRCC1 / Fold change vs veh, LRRCC1 / RFU, ARID1A / Fold change vs veh, ARID1A / RFU, ZNF146 / Fold change vs veh, ZNF146 / RFU, ZNF330 / Fold change vs veh, ZNF330 / RFU, GPN3 / Fold change vs veh, GPN3 / RFU, C9orf123 / Fold change vs veh, C9orf123 / RFU, N4BP2L2 / Fold change vs veh, N4BP2L2 / RFU, ARFIP1 / Fold change vs veh, ARFIP1 / RFU, FAM179B / Fold change vs veh, FAM179B / RFU, BCL10 / Fold change vs veh, BCL10 / RFU, UHRF1BP1L / Fold change vs veh, UHRF1BP1L / RFU, BET1 / Fold change vs veh, BET1 / RFU, CNOT2 / Fold change vs veh, CNOT2 / RFU, ZNF268 / Fold change vs veh, ZNF268 / Fold change vs veh, ZNF507 / RFU, DGCR2 / Fold change vs veh, DGCR2 / RFU, WDSUB1 / Fold change vs veh, WDSUB1 / Fold change vs veh, HSP90B1 /// MIR3652 / RFU, ADSS / Fold change vs veh, ADSS / RFU, GK / Fold change vs veh, GK / RFU, ZNF148 / Fold change vs veh, ZNF148 / RFU, TAF9 / Fold change vs veh, TAF9 / RFU, SLC1A5 / Fold change vs veh, SLC1A5 / RFU, SLMO2 / Fold change vs veh, SLMO2 / RFU, ABCC4 / Fold change vs veh, ABCC4 / RFU, LOC101060439 /// RAP1B / Fold change vs veh, LOC101060439 /// RAP1B / RFU, RFX7 / Fold change vs veh, RFX7 / RFU, GTPBP10 / Fold change vs veh, GTPBP10 / RFU, CNEP1R1 / Fold change vs veh, CNEP1R1 / RFU, BIVM-ERCC5 /// ERCC5 / Fold change vs veh, BIVM-ERCC5 /// ERCC5 / RFU, ILF3 / Fold change vs veh, ILF3 / RFU 11762660_at / Fold change /veh 11762660_at / RFU VCAN (11757783_s_at) / Fold change /veh VCAN (11757783_s_at) / RFU DDX43 (11728927_at) / Fold change /veh DDX43 (11728927_at) / RFU KRT8 (11758188_x_at) / Fold change /veh KRT8 (11758188_x_at) / RFU NKD1 (11759106_at) / Fold change /veh NKD1 (11759106_at) / RFU SRD5A1 (11742802_a_at) / Fold change /veh SRD5A1 (11742802_a_at) / RFU TPSAB1 /// TPSB2 (11721975_s_at) / Fold change /veh TPSAB1 /// TPSB2 (11721975_s_at) / RFU GSTM3 (11746129_a_at) / Fold change /veh GSTM3 (11746129_a_at) / RFU IL23R (11737362_x_at) / Fold change /veh IL23R (11737362_x_at) / RFU TMEM51 (11727254_a_at) / Fold change /veh TMEM51 (11727254_a_at) / RFU PIWIL2 (11732686_x_at) / Fold change /veh PIWIL2 (11732686_x_at) / RFU ORM1 (11744905_x_at) / Fold change /veh ORM1 (11744905_x_at) / RFU CCDC152 (11743942_at) / Fold change /veh CCDC152 (11743942_at) / RFU ECM1 (11717891_a_at) / Fold change /veh ECM1 (11717891_a_at) / RFU IL23R (11748794_a_at) / Fold change /veh IL23R (11748794_a_at) / RFU TNFAIP8L3 (11732012_x_at) / Fold change /veh TNFAIP8L3 (11732012_x_at) / RFU MBOAT4 (11741988_at) / Fold change /veh MBOAT4 (11741988_at) / RFU 11764193_at / Fold change /veh 11764193_at / RFU TMEM53 (11763286_at) / Fold change /veh TMEM53 (11763286_at) / RFU MAGEB2 (11727129_at) / Fold change /veh MAGEB2 (11727129_at) / RFU TMEM200A (11744735_a_at) / Fold change /veh TMEM200A (11744735_a_at) / RFU CCDC152 (11751479_a_at) / Fold change /veh CCDC152 (11751479_a_at) / RFU FAM211A (11726209_a_at) / Fold change /veh FAM211A (11726209_a_at) / RFU RGS16 (11746705_a_at) / Fold change /veh RGS16 (11746705_a_at) / RFU VCAN (11755009_s_at) / Fold change /veh VCAN (11755009_s_at) / RFU RHOB (11743442_s_at) / Fold change /veh RHOB (11743442_s_at) / RFU RGS16 (11720943_a_at) / Fold change /veh RGS16 (11720943_a_at) / RFU RGS16 (11720944_at) / Fold change /veh RGS16 (11720944_at) / RFU, VPS4B / Fold change vs veh, VPS4B / RFU, CREB1 / Fold change vs veh, CREB1 / RFU, DNAJC13 / Fold change vs veh, DNAJC13 / RFU, GNAQ / Fold change vs veh, GNAQ / RFU, CDK5R1 / Fold change vs veh, CDK5R1 / RFU, ZRANB3 / Fold change vs veh, ZRANB3 / RFU, CUL4A / Fold change vs veh, CUL4A / RFU, CCNY / Fold change vs veh, CCNY / RFU, UFL1 / Fold change vs veh, UFL1 / RFU, COG3 / Fold change vs veh, COG3 / RFU, DIAPH2 / Fold change vs veh, DIAPH2 / RFU, SKA2 / Fold change vs veh, SKA2 / RFU, AFF3 / Fold change vs veh, AFF3 / RFU, LMF1 / Fold change vs veh, LMF1 / RFU, IPO11 / Fold change vs veh, IPO11 / RFU, DFFB / Fold change vs veh, DFFB / RFU, FOXP1 / Fold change vs veh, FOXP1 / RFU, CARD8 / Fold change vs veh, CARD8 / RFU, STRN3 / Fold change vs veh, STRN3 / RFU, ADK / Fold change vs veh, ADK / RFU, RASSF2 / Fold change vs veh, RASSF2 / RFU, WIPF1 / Fold change vs veh, WIPF1 / RFU, LARP1B / Fold change vs veh, LARP1B / RFU, RASA1 / Fold change vs veh, RASA1 / RFU, RB1 / Fold change vs veh, RB1 / RFU, PPFIA1 / Fold change vs veh, PPFIA1 / RFU, MAT2A / Fold change vs veh, MAT2A / RFU, CCT5 / Fold change vs veh, CCT5 / RFU, WDR92 / Fold change vs veh, WDR92 / RFU, CUX1 / Fold change vs veh, CUX1 / RFU, TTC7A / Fold change vs veh, TTC7A / RFU, TMEM135 / Fold change vs veh, TMEM135 / RFU, DEPTOR / Fold change vs veh, DEPTOR / RFU, CPM / Fold change vs veh, CPM / RFU, DNAJB6 / Fold change vs veh, DNAJB6 / RFU, CACNA2D3 / Fold change vs veh, CACNA2D3 / RFU, DTX4 / Fold change vs veh, DTX4 / RFU, TFCP2 / Fold change vs veh, TFCP2 / RFU, GMCL1 /// GMCL1P1 / Fold change vs veh, GMCL1 /// GMCL1P1 / RFU, AEBP2 / Fold change vs veh, AEBP2 / RFU, SNHG1 /// SNORD22 /// SNORD25 /// SNORD26 /// SNORD27 /// SNORD28 /// SNORD29 /// SNORD31 / Fold change vs veh, SNHG1 /// SNORD22 /// SNORD25 /// SNORD26 /// SNORD27 /// SNORD28 /// SNORD29 /// SNORD31 / Fold change (Aza/veh), C12orf56 (ProbeSet 11735607_a_at) / Fold change (ACY-1035/veh), C12orf56 (ProbeSet 11735607_a_at) / Fold change (Aza/veh), FGFR1OP (ProbeSet 11751329_s_at) / Fold change (ACY-1035/veh), FGFR1OP (ProbeSet 11751329_s_at) / Fold change (Aza/veh), VPS36 (ProbeSet 11739960_a_at) / Fold change (ACY-1035/veh), VPS36 (ProbeSet 11739960_a_at) / RFU SYPL1 (11715823_x_at) / Fold change /veh SYPL1 (11715823_x_at) / RFU IGFBP7 (11715501_s_at) / Fold change /veh IGFBP7 (11715501_s_at) / RFU REEP3 (11722064_at) / Fold change /veh REEP3 (11722064_at) / RFU IGLL1 (11728026_x_at) / Fold change /veh IGLL1 (11728026_x_at): dose or concentration left out as unconfirmed
Conditions: ProbeSet 11758919_x_at; LIST D

With `Nc1ncn([C@@H]2O[C@H](CO)[C@@H](O)[C@H]2O)c(=O)n1` [azacitidine] the “RFU, TFCP2” value was 66.08 RFU.
